# Measurements as given in US20060040871A1, “Bacterial transforming agent” (priority 2003, published 2006).
# Where two headings read alike, the source gives them in different places.
# Key:
# MRSA [1] = assay: MIC of methicillin for MRSA isolates grown with glycine or GBE (Table 1); assay type: cell-based, Staphylococcus aureus; settings: for MIC of methicillin: GBE 0.001M (0.2%)
# MRSA [2] = assay type: cell-based, Staphylococcus aureus; settings: GBE 0.00075M [0.15%]
# Description: Stored frozen plasma was pooled from five subjects.
# Human plasma may bind or otherwise inactivate foreign substances and good activity in plasma is indicative of good in vivo activity.
# MRSA [3] = assay type: cell-based, Staphylococcus aureus; settings: agents not hydrolysed by staphylococcal β-lactamase
# MRSA [4] = assay: Screening on Isosensitest agar with incorporated BTA and 10 μg methicillin discs; assay type: cell-based, Staphylococcus aureus; settings: VRE and MRSA
# Experimental: To find substances related to GBE that might have increased potency, various substances, including those with additional glycine moieties and benzylates, have been screened. Screening was carried out using Isosensitest agar (Oxoid, UK) into which various levels of potential BTAs were incorporated at levels between 0.01 and 1.0%. The agar with incorporated BTA was then used in the manner of a standard antibiotic sensitivity test using 10 μg methicillin discs. The test organism was inoculated onto the agar surface at a concentration suitable to achieve confluent growth after 18 hours incubation at 30° C. After incubation, zone diameters were compared with that achieved by the control plate (Isosensitest alone) for each test organism.
# VRE = assay: Antimicrobial plus BTA against VRE (Table 7); assay type: cell-based, enterococci; settings: +BTA 1.0%
# [5] = test system: vancomycin- and gentamicin-resistant Enterococcus faecium; assay: microbe, parasite or virus in culture; assay type: cell-based; settings: for MIC of vancomycin: GBE 0.02M
# Description: The agents of the present invention are not limited to the reversal of resistance in Staphylococcus. The test strains in Table 5 are patient-isolates of vancomycin- and gentamicin-resistant Enterococcus faecium. At the time of isolation, they were commonly resistant to all clinically useable antimicrobial agents.
structure (smiles),measurement,setting,value
"NCC(=O)OCc1ccccc1 [GBE, Glycine Benzyl Ester]",strains tested with complete transformation,"MRSA [1]; 0.02 M glycylbenzyl ester, said of Table 1",100%
same,MIC of methicillin,MRSA [1]; CD40 (EMRSA-1),2 µg/mL
same,MIC of methicillin,MRSA [1]; DS09 (EMRSA-1),2 µg/mL
same,MIC of methicillin,MRSA [1]; E15-97 (EMRSA-15),2 µg/mL
same,MIC of methicillin,MRSA [1]; E16-96 (EMRSA-16),2 µg/mL
same,MIC of methicillin,MRSA [1]; JF1-32 (EMRSA-1),2 µg/mL
same,MIC of methicillin,MRSA [1]; L265,2 µg/mL
same,MIC of methicillin,MRSA [1]; L266,2 µg/mL
same,MIC of methicillin,MRSA [1]; L267,2 µg/mL
same,MIC of methicillin,MRSA [1]; L268,2 µg/mL
same,MIC of methicillin,MRSA [1]; L269,1 µg/mL
same,MIC of methicillin,MRSA [1]; L270,1 µg/mL
same,MIC of methicillin,MRSA [1]; L271,2 µg/mL
same,MIC of methicillin,MRSA [1]; L272,1 µg/mL
same,MIC of methicillin,MRSA [1]; L273,1 µg/mL
same,MIC of methicillin,MRSA [1]; L274,2 µg/mL
same,MIC of methicillin,MRSA [1]; L275,2 µg/mL
same,MIC of methicillin,MRSA [1]; L276,2 µg/mL
same,MIC of methicillin,MRSA [1]; L277,2 µg/mL
same,MIC of methicillin,MRSA [1]; L278,4 µg/mL
same,MIC of methicillin,MRSA [1]; L279,2 µg/mL
same,MIC of methicillin,MRSA [1]; L280,2 µg/mL
same,MIC of methicillin,MRSA [1]; L281,2 µg/mL
same,MIC of methicillin,MRSA [1]; L282,2 µg/mL
same,MIC of methicillin,MRSA [1]; L283,2 µg/mL
same,MIC of methicillin,MRSA [1]; L284,2 µg/mL
same,MIC of methicillin,MRSA [1]; L285,2 µg/mL
same,MIC of methicillin,MRSA [1]; L286,2 µg/mL
same,MIC of methicillin,MRSA [1]; L287,2 µg/mL
same,MIC of methicillin,MRSA [1]; L288,2 µg/mL
same,MIC of methicillin,MRSA [1]; L289,2 µg/mL
same,MIC of methicillin,MRSA [1]; L290,2 µg/mL
same,MIC of methicillin,MRSA [1]; L291,2 µg/mL
same,MIC of methicillin,MRSA [1]; L292,2 µg/mL
same,MIC of methicillin,MRSA [1]; L293,2 µg/mL
same,MIC of methicillin,MRSA [1]; L294,2 µg/mL
same,MIC of methicillin,MRSA [1]; MC01 (EMRSA-1),2 µg/mL
same,MIC of methicillin,MRSA [1]; NCTC 12493,0.015 µg/mL
same,MIC of methicillin,MRSA [1]; PS3-32 (EMRSA-1),2 µg/mL
same,MIC of methicillin,MRSA [1]; SN31 (EMRSA-1),2 µg/mL
same,MIC of methicillin,MRSA [1]; ST11 (EMRSA-1),2 µg/mL
same,MIC of methicillin,MRSA [1]; SW2-32 (EMRSA-1),2 µg/mL
same,effect on sensitivity to methicillin compared with glycine,MRSA [1]; Table 1,increased sensitivity to methicillin to a much greater extent than glycine
same,MIC of methicillin,"MRSA [2]; 5518 (EMRSA-1), +1% human plasma",4 µg/mL
same,MIC of methicillin,"MRSA [2]; 5518 (EMRSA-1), no plasma",2 µg/mL
same,MIC of methicillin,"MRSA [2]; L277, +1% human plasma",8 µg/mL
same,MIC of methicillin,"MRSA [2]; L277, no plasma",4 µg/mL
same,MIC of methicillin,"MRSA [2]; L278, +1% human plasma",16 µg/mL
same,MIC of methicillin,"MRSA [2]; L278, no plasma",8 µg/mL
same,MIC of methicillin,"MRSA [2]; L279, +1% human plasma",16 µg/mL
same,MIC of methicillin,"MRSA [2]; L279, no plasma",4 µg/mL
same,MIC of methicillin,"MRSA [2]; L280, +1% human plasma",8 µg/mL
same,MIC of methicillin,"MRSA [2]; L280, no plasma",4 µg/mL
same,MIC of methicillin,"MRSA [2]; L281, +1% human plasma",8 µg/mL
same,MIC of methicillin,"MRSA [2]; L281, no plasma",4 µg/mL
same,MIC of methicillin,"MRSA [2]; L282, +1% human plasma",16 µg/mL
same,MIC of methicillin,"MRSA [2]; L282, no plasma",4 µg/mL
same,MIC of methicillin,"MRSA [2]; L283, +1% human plasma",16 µg/mL
same,MIC of methicillin,"MRSA [2]; L283, no plasma",4 µg/mL
same,MIC of methicillin,"MRSA [2]; L284, +1% human plasma",8 µg/mL
same,MIC of methicillin,"MRSA [2]; L284, no plasma",2 µg/mL
same,MIC of methicillin,"MRSA [2]; L285, +1% human plasma",16 µg/mL
same,MIC of methicillin,"MRSA [2]; L285, no plasma",4 µg/mL
same,MIC of methicillin,"MRSA [2]; L286, +1% human plasma",8 µg/mL
same,MIC of methicillin,"MRSA [2]; L286, no plasma",4 µg/mL
same,MIC of methicillin,"MRSA [2]; L287, +1% human plasma",16 µg/mL
same,MIC of methicillin,"MRSA [2]; L287, no plasma",4 µg/mL
same,MIC of methicillin,"MRSA [2]; L288, +1% human plasma",16 µg/mL
same,MIC of methicillin,"MRSA [2]; L288, no plasma",2 µg/mL
same,MIC of methicillin,"MRSA [2]; L289, +1% human plasma",16 µg/mL
same,MIC of methicillin,"MRSA [2]; L289, no plasma",4 µg/mL
same,MIC of methicillin,"MRSA [2]; L290, +1% human plasma",8 µg/mL
same,MIC of methicillin,"MRSA [2]; L290, no plasma",4 µg/mL
same,MIC of methicillin,"MRSA [2]; L291, +1% human plasma",16 µg/mL
same,MIC of methicillin,"MRSA [2]; L291, no plasma",4 µg/mL
same,MIC of methicillin,"MRSA [2]; L292, +1% human plasma",32 µg/mL
same,MIC of methicillin,"MRSA [2]; L292, no plasma",4 µg/mL
same,MIC of methicillin,"MRSA [2]; L293, +1% human plasma",8 µg/mL
same,MIC of methicillin,"MRSA [2]; L293, no plasma",2 µg/mL
same,MIC of methicillin,"MRSA [2]; L294, +1% human plasma",8 µg/mL
same,MIC of methicillin,"MRSA [2]; L294, no plasma",2 µg/mL
same,sensitivity of MRSA to other β-lactam agents in the presence of GBE,MRSA [3],sensitive to cephalosporins and other β-lactam agents
same,activity against VRE and MRSA relative to glycylglycine benzyl ester,MRSA [4],greater activity
same,"Vancomycin (antimicrobial plus BTA; quantity not named, MIC implied)",VRE,64 µg/mL
same,strains tested with complete transformation (target MIC of vancomycin 2 mg/l),"[5]; 0.02 M GBE, Table 5",100%
same,MIC of vancomycin,[5]; ATCC 29212,1 µg/mL
same,MIC of vancomycin,[5]; BBC,2 µg/mL
same,MIC of vancomycin,[5]; E254,2 µg/mL
same,MIC of vancomycin,[5]; E267,2 µg/mL
same,MIC of vancomycin,[5]; E271,2 µg/mL
same,MIC of vancomycin,[5]; E285,2 µg/mL
same,MIC of vancomycin,[5]; E297,2 µg/mL
same,MIC of vancomycin,[5]; GBC,2 µg/mL
same,MIC of vancomycin,[5]; S226,2 µg/mL
same,MIC of vancomycin,[5]; S227,2 µg/mL
same,MIC of vancomycin,[5]; S283,2 µg/mL
same,MIC of vancomycin,[5]; S302,2 µg/mL
same,MIC of vancomycin,[5]; S315,1 µg/mL
same,MIC of vancomycin,[5]; S317,2 µg/mL
same,MIC of vancomycin,[5]; S319,2 µg/mL
same,MIC of vancomycin,[5]; S333,2 µg/mL
same,MIC of vancomycin,[5]; S337,2 µg/mL
same,MIC of vancomycin,[5]; S393,2 µg/mL
same,MIC of vancomycin,[5]; S497,1 µg/mL
same,MIC of vancomycin,[5]; S556,1 µg/mL
same,MIC of vancomycin,[5]; WBC,2 µg/mL
